ChEMBL document CHEMBL1201862, “PubChem BioAssay data set” (2004)
Calls of active or inactive are those of the source.

Assays:
HEK293 [1] = test: NOD1 signaling inhibitors, primary screen, cell-based, luminescence, uHTS (AID 1578); format: functional; settings: Homo sapiens
HEK293 [2] = test: cells; format: functional, cell-based; settings: Homo sapiens
HEK293 [3] = test: cells; format: functional, cell-based; settings: Homo sapiens; remark: listed apart in the source
[4] = molecular target: Luciferin 4-monooxygenase (Photinus pyralis, UniProt P08659); test: firefly luciferase enzyme inhibitors, dose response, biochemical, luminescence (AID 1891)
[5] = Luminescence Cell-Based Dose Confirmation HTS to Identify Inhibitors of Platelet Dense Granule Release. [Related pubchem assays: 1663 (Primary HTS), 1678 (Summary of Project)]; format: functional
[6] = molecular target: Nucleotide-binding oligomerization domain-containing protein 2 (Homo sapiens, UniProt Q9HC29); test: NOD2 signaling inhibitors, cell-based, luminescence, uHTS, HEK293 (AID 1566); format: functional
HEK293 [7] = test: NOD2 signaling inhibitors in MDP-stimulated cells, cell-based, uHTS, luminescence (AID 2001); format: functional; settings: Homo sapiens
HEK293 [8] = test: cells; format: functional, cell-based; settings: Homo sapiens; remark: listed apart in the source
Cytochrome P450 1A2 = molecular target: T1, Cytochrome P450 1A2 (Homo sapiens, UniProt P05177);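 also: PubChem cytochrome P450 panel assay, CYP1A2 panel member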
T1 sequence (P05177 whole entry): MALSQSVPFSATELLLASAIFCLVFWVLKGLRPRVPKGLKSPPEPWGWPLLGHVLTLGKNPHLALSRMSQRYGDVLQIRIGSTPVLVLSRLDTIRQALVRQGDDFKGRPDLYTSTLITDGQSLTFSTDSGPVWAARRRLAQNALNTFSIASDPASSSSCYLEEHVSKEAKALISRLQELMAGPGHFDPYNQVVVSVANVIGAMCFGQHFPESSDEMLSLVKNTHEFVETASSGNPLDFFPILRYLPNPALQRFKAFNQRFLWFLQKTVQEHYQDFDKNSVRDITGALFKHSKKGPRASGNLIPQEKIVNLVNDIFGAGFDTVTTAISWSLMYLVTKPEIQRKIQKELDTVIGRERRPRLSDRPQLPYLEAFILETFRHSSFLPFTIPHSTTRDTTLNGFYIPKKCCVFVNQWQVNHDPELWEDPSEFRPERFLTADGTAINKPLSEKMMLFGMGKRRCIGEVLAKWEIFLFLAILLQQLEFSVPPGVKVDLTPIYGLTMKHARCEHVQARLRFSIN

Cytochrome P450 2C9 = Cytochrome P450 2C9 (Homo sapiens, UniProt P11712)
Cytochrome P450 2D6 = Cytochrome P450 2D6 (Homo sapiens, UniProt P10635);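 also: CYP2D6 member of a cytochrome P450 panel assay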
Vero [9] = test: cells; format: functional, cell-based; settings: Chlorocebus sabaeus
Vero [10] = test: cells; format: functional; settings: Chlorocebus sabaeus
Paired box protein Pax-8 = Paired box protein Pax-8 (Homo sapiens, UniProt Q06710); test: inhibitors of PAX8-driven TPO luciferase reporter, dose response, RMG-I cells, cherry-pick (AID 687027); format: functional, cell-based;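 also: luciferase reporter driven by Pax8 target thyroperoxidase promoter measured by SteadyGlo luminescence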
Cytochrome P450 2C19 = Cytochrome P450 2C19 (Homo sapiens, UniProt P33261); test: Cytochrome panel assay with activity outcomes. Panel member name: p450-cyp2c19 Compounds with AC50 equal or less than 10 uM are considered active; format: functional; settings: read-out: AC50
[11] = molecular target: Glucose-6-phosphate 1-dehydrogenase (Homo sapiens, UniProt P11413); test: human G6PD enzyme inhibitors, dose response, selectivity assay for P. falciparum G6PD inhibitor project, biochemical, fluorescence (AID 504792); format: functional
[12] = molecular target: T2, Lysine-specific demethylase 4C (Homo sapiens, UniProt Q9H3R0); test: GASC-1 (JMJD2C) histone demethylase inhibitors, dose response, biochemical, DELFIA europium, cherry-picked samples (AID 488835); format: functional
T2 sequence (Q9H3R0 whole entry): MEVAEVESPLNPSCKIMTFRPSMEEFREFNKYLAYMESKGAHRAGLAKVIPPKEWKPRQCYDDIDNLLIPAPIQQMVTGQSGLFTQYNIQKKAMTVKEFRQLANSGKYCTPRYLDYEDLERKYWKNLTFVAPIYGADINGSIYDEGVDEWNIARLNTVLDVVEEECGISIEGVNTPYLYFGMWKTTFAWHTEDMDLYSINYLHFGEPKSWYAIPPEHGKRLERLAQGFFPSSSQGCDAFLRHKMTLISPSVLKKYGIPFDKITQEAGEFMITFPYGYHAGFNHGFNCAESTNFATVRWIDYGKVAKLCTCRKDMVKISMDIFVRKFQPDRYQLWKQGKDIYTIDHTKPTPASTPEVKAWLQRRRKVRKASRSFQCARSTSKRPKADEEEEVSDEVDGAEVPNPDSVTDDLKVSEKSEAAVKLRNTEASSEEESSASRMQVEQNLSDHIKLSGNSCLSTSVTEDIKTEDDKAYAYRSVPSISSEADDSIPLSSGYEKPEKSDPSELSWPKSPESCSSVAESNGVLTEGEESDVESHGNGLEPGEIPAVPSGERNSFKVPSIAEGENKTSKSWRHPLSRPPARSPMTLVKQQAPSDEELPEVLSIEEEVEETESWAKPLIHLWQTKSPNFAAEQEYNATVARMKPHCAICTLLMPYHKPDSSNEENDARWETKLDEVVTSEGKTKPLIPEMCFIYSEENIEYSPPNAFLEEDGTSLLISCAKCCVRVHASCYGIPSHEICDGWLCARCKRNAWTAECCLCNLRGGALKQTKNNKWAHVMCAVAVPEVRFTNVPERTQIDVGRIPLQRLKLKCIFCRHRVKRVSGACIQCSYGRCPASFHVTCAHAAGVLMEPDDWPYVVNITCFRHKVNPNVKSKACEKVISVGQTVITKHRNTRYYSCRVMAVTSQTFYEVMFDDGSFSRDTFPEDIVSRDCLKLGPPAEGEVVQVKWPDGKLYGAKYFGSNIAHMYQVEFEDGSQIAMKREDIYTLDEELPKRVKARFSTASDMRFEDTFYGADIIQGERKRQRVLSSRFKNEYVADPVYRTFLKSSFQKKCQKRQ

Cytochrome P450 3A4 = Cytochrome P450 3A4 (Homo sapiens, UniProt P08684);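 also: CYP3A4 tested as one member of a cytochrome P450 panel screen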
Chain of Cytochrome P450 3A4 (P08684 whole entry): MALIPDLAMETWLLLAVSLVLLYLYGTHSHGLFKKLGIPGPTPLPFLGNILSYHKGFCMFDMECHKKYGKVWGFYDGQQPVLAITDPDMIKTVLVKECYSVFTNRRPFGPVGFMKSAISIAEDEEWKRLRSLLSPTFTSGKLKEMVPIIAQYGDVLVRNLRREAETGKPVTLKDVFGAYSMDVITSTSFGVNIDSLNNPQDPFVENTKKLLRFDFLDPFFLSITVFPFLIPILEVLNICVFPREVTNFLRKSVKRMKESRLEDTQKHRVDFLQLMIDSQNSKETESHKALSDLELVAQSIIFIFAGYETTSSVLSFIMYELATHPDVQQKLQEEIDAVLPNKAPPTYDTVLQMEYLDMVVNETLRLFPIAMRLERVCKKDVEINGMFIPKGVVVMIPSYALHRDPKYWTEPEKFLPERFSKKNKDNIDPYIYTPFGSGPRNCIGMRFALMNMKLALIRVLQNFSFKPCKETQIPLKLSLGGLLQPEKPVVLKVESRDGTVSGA

Chain of Cytochrome P450 2D6 (P10635 whole entry): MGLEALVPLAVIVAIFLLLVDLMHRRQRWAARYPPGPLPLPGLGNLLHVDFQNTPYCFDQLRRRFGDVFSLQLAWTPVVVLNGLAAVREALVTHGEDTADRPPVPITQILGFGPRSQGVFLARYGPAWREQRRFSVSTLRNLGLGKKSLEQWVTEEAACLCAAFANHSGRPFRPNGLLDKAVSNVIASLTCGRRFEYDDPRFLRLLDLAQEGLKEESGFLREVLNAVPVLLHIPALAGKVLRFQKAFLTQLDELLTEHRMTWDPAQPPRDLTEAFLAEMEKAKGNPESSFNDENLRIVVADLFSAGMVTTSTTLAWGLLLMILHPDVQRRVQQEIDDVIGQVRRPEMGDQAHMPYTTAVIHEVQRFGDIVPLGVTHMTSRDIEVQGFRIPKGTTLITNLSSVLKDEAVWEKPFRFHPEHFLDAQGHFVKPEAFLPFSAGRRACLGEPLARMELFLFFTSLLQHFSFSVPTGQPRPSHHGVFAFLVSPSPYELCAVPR
Chain of Nucleotide-binding oligomerization domain-containing protein 2 (Q9HC29 whole entry, the tested form may be a part): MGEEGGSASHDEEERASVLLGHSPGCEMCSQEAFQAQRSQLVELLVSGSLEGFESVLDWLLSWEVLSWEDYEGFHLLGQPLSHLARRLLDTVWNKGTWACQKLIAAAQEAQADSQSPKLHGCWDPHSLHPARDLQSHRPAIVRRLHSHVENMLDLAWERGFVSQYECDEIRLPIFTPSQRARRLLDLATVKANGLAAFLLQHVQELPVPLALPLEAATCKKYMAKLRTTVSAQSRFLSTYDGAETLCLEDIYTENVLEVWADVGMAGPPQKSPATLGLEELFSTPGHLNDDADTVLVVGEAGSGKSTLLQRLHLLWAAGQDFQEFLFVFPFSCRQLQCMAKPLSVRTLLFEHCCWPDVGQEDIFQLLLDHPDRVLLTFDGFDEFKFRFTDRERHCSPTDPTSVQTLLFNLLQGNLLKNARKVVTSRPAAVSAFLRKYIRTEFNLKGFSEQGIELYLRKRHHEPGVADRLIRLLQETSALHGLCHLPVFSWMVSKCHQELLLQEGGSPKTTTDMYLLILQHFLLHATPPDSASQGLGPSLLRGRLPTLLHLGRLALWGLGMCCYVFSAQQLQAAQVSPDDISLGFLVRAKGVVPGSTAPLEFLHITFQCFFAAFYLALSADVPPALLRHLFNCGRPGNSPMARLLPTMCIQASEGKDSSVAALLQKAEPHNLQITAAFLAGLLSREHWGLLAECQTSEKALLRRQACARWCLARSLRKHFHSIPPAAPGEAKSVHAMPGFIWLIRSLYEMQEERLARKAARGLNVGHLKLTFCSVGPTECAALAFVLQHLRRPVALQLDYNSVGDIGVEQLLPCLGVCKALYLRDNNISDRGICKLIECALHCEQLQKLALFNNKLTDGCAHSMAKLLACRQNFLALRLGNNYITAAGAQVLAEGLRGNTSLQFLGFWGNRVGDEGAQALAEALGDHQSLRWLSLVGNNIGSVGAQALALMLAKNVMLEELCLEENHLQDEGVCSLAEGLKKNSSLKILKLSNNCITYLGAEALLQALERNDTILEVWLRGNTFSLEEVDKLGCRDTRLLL
Chain of Cytochrome P450 2C9 (P11712 whole entry): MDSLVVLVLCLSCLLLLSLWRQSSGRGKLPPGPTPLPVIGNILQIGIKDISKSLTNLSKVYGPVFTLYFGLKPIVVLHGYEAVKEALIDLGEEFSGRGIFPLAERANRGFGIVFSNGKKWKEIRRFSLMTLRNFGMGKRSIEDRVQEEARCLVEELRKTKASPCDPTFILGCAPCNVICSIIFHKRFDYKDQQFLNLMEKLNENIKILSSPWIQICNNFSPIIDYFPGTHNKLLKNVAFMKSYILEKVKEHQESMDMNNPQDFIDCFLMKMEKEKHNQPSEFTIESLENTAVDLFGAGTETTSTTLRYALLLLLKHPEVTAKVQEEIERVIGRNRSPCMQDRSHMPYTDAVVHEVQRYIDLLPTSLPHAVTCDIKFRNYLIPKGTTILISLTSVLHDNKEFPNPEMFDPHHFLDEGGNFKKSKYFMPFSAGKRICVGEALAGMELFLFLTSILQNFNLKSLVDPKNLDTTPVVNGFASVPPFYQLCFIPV
Chain of Paired box protein Pax-8 (Q06710 whole entry): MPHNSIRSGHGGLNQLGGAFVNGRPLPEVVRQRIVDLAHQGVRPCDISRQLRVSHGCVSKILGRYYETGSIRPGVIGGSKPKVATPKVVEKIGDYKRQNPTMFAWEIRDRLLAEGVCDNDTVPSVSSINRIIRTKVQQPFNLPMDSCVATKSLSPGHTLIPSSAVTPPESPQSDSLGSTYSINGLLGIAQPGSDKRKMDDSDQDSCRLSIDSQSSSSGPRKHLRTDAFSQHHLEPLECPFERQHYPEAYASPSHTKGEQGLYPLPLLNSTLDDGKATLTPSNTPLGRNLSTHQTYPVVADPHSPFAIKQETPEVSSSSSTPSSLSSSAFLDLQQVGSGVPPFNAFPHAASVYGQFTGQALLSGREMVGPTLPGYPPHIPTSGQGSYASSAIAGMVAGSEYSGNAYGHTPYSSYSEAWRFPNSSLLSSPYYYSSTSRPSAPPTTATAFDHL
Chain of Glucose-6-phosphate 1-dehydrogenase (P11413 whole entry): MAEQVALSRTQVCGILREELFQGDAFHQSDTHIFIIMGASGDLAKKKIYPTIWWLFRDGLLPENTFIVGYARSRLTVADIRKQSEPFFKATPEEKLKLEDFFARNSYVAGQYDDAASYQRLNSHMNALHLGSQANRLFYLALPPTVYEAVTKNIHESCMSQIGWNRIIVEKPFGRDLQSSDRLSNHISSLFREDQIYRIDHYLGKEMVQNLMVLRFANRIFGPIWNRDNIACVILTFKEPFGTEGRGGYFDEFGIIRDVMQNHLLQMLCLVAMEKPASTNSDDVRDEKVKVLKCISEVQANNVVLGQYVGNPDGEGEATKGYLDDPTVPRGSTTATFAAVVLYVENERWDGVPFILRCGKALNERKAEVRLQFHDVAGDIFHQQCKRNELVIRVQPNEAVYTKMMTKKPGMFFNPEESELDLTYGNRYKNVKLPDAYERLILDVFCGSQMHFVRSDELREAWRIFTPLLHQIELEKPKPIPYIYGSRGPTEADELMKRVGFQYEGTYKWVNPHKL
Chain of Luciferin 4-monooxygenase (P08659 whole entry): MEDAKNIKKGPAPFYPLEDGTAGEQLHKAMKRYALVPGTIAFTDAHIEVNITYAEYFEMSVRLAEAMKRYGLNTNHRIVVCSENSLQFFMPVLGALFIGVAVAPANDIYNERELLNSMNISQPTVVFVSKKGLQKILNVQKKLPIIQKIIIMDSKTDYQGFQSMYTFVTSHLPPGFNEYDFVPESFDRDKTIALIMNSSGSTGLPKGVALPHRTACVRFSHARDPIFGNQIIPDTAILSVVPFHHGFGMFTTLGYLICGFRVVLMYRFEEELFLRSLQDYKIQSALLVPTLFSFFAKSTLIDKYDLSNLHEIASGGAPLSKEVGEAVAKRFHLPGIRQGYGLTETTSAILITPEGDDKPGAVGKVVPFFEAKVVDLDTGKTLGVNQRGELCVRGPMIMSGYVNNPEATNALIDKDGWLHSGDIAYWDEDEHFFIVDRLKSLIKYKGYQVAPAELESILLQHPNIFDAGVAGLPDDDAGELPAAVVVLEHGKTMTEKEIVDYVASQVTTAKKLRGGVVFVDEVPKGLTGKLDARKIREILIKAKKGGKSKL
Chain of Cytochrome P450 2C19 (P33261 whole entry): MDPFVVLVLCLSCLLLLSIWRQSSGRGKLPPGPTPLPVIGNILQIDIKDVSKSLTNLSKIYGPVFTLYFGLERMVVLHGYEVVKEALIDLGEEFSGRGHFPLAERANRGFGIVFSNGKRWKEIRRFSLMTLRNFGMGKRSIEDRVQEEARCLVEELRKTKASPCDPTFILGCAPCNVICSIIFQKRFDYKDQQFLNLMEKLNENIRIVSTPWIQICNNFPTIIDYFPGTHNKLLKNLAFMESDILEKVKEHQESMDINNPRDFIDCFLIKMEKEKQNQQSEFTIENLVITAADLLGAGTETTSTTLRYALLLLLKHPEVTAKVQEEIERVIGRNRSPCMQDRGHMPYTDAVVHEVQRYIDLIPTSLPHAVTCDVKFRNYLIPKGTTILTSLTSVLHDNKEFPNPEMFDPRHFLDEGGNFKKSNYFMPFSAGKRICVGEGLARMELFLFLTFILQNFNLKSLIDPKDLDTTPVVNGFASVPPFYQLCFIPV

In the case of Cc1ccc(-n2c(C)cc(/C=c3/sc4nc5ccccc5n4c3=O)c2C)cc1, the EC50 (HEK293 [1]) is reported as 2.95 µM (active), the IC50 (HEK293 [2]) is reported as 0.703 µM (active) and the IC50 (HEK293 [3]) is reported as > 20 µM (inactive). For the same molecule, the EC50 [4] was > 112 µM (not active), the EC50 [5] was > 112 µM (not active) and the EC50 [6] was 0.49 µM (active). For the same molecule, the IC50 (HEK293 [7]) was 0.48 µM (active) and the IC50 (HEK293 [8]) was > 20 µM (inactive).
In the case of CCC(=O)c1ccc(OCc2ccc(C(=O)OC)cc2)c(OC)c1, the AC50 (Cytochrome P450 1A2) is reported as 6.31 µM (inconclusive), the AC50 (Cytochrome P450 2C9) is reported as 8.91 µM (inconclusive) and the AC50 (Cytochrome P450 2D6) is reported as “inconclusive”.
In the case of CC(=O)O[C@H]1C[C@H](O[C@H]2[C@@H](O)C[C@H](O[C@H]3[C@@H](O)C[C@H](O[C@H]4CC[C@@]5(C)[C@H](CC[C@@H]6[C@@H]5C[C@@H](O)[C@]5(C)[C@@H](C7=CC(=O)OC7)CC[C@]65O)C4)O[C@@H]3C)O[C@@H]2C)O[C@H](C)[C@H]1O[C@@H]1O[C@H](CO)[C@@H](O)[C@H](O)[C@H]1O [LANATOSIDE C], the IC50 (Vero [9]) is reported as > 25 µM (active), the CC50 (Vero [10]) is reported as 650 nM (active) and the AC50 (Paired box protein Pax-8) is reported as 801 nM (active).
With CC(C)CNC(=O)c1nc(-c2ccccc2)n(-c2ccccc2)n1 the AC50 (Cytochrome P450 2C19) was 39.8 µM (inconclusive), the AC50 (Cytochrome P450 1A2) was 28.2 µM (inconclusive) and the AC50 (Cytochrome P450 2C9) was 39.8 µM (inconclusive). The AC50 (Cytochrome P450 2D6) was “inconclusive”.
With COc1ccc(C(=O)Nc2nnc(S(=O)(=O)N3CCOCC3)s2)cc1 the IC50 [11] was > 80 µM (inactive).
For COc1cccc(OCc2cc(C(=O)NCc3cnc4ccccn34)no2)c1, the EC50 (HEK293 [1]) was 12.9 µM (active), the IC50 (HEK293 [2]) was 18.9 µM (active) and the IC50 (HEK293 [3]) was > 20 µM (inactive). For the same molecule, the EC50 [6] was > 20 µM (inactive), the IC50 (HEK293 [7]) was > 20 µM (inactive) and the IC50 (HEK293 [8]) was > 20 µM (inactive).
In the case of COc1ccc(/C=C2/C(=O)NC(=O)N(C3CCCCC3)C2=O)cc1CSc1ccccn1, the AC50 [12] is reported as 10 µM (active).
For Cc1cc(C)n2nc(SCN3C(=O)c4ccccc4C3=O)nc2n1, the AC50 (Cytochrome P450 3A4) was 6.31 µM (inconclusive) and the AC50 (Cytochrome P450 2D6) was “inconclusive”.
